These results are taken from PubChem BioAssay AID1963443 (Molecular Pharmacology Branch, DTP, NCI, 2024).

The term viability, T/C denotes the ratio of treated to control. Broadly, the IC50 is the point on the concentration scale where inhibition reaches its midpoint.

The test system of the experiment is MDA-MB-231 complex spheroids, growth inhibition. The experiment in a line: Anticancer human tumor MDA-MB-231 cell line growth inhibition [Asc].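 On all read-outs here: spheroids exposed to compounds for 7 days.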 The following applies: for viability, T/C: stronger effect = lower value. The method in brief:
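Tumor cells were grown as multicellular spheroids with stromal HUVEC and mesenchymal stem cells and treated singly or in combination. Concentrations fell in half-log steps from the clinical Cmax, or from 10 microM where none was known.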

Where [1] appears, read: curve of first compound, second compound 0.1 µM.
The mark [2] stands for this setting: curve of first compound, second compound 0.316 µM.
Setting [3] is: curve of first compound, second compound 1 µM.
The mark [4] stands for this setting: curve of first compound, second compound 3.16 µM.
[5] abbreviates: curve of first compound, second compound 10 µM.

“And” between values parts separate entries of the source, which are not always exact repeats. Equal values may be shown once.

`Cc1c(S(C)(=O)=O)c(-c2cc(F)cc(N3CCN(c4ccc(NS(=O)(=O)c5ccc(NC(CCN6CCC(C(=O)OCCCP(=O)(O)O)CC6)CSc6ccccc6)c(S(=O)(=O)C(F)(F)F)c5)cc4)CC3)c2)c(-c2ccc(Cl)cc2)n1C(C)C` (stereo not drawn): the viability, T/C is 96.4% [middle of 14 runs] (compound 0.1 µM); 105% [middle of 14 runs] (compound 0.316 µM); 98.3% [middle of 14 runs] (compound 1 µM); 98.5% [middle of 14 runs] (compound 3.16 µM); 95% [middle of 14 runs] (compound 10 µM). The IC50 (compound alone, run of 10/11/2022) was more than 10000 nM.
Turning to `C=CC(=O)N1CCN(c2nc(=O)n(-c3c(C)ccnc3C(C)C)c3nc(-c4c(O)cccc4F)c(F)cc23)C(C)C1` (stereo not drawn), the viability, T/C by setting is: (compound 0.0316 µM) 101% and 102% and 103%; (compound 0.1 µM) 104% and 105% and 103%; (compound 0.316 µM) 106% (2×) and 107%; (compound 1 µM) 107% and 109% and 111%; (compound 3.16 µM) 119% and 117% and 113%; (compound 10 µM) 119% and 121% and 110%. The IC50 (curve of compound) was more than 10000 nM.
`NC(=O)C(=Cn1cnc(-c2cc(C(F)(F)F)cc(C(F)(F)F)c2)n1)c1cncnc1` + Cc1c(S(C)(=O)=O)c(-c2cc(F)cc(N3CCN(c4ccc(NS(=O)(=O)c5ccc(NC(CCN6CCC(C(=O)OCCCP(=O)(O)O)CC6)CSc6ccccc6)c(S(=O)(=O)C(F)(F)F)c5)cc4)CC3)c2)c(-c2ccc(Cl)cc2)n1C(C)C: the IC50 runs as follows: under setting [1], 63.4 nM; under setting [2], 56.5 nM; under setting [3], 50.8 nM; under setting [4], 38.8 nM; under setting [5], 43.3 nM. The viability, T/C was 100% (second compound 0.1 µM, first compound 0.000949 µM); 101% (second compound 0.1 µM, first compound 0.003 µM); 86.3% (second compound 0.1 µM, first compound 0.00949 µM); 62.6% (second compound 0.1 µM, first compound 0.03 µM); 43.7% (second compound 0.1 µM, first compound 0.0949 µM); 6.26% (second compound 0.1 µM, first compound 0.3 µM). The viability, T/C runs as follows: (second compound 0.316 µM, first compound 0.000949 µM) 111%; (second compound 0.316 µM, first compound 0.003 µM) 103%; (second compound 0.316 µM, first compound 0.00949 µM) 89.8%; (second compound 0.316 µM, first compound 0.03 µM) 64.9%; (second compound 0.316 µM, first compound 0.0949 µM) 37.4%; (second compound 0.316 µM, first compound 0.3 µM) 4.18%. The viability, T/C reads like this: (second compound 1 µM, first compound 0.000949 µM) 104%; (second compound 1 µM, first compound 0.003 µM) 103%; (second compound 1 µM, first compound 0.00949 µM) 88.5%; (second compound 1 µM, first compound 0.03 µM) 67.4%; (second compound 1 µM, first compound 0.0949 µM) 30.2%; (second compound 1 µM, first compound 0.3 µM) 2.94%. The viability, T/C reads like this: (second compound 3.16 µM, first compound 0.000949 µM) 98.1%; (second compound 3.16 µM, first compound 0.003 µM) 93.7%; (second compound 3.16 µM, first compound 0.00949 µM) 84.4%; (second compound 3.16 µM, first compound 0.03 µM) 60%; (second compound 3.16 µM, first compound 0.0949 µM) 19.2%; (second compound 3.16 µM, first compound 0.3 µM) 2.31%. Also, the viability, T/C reads like this: (second compound 10 µM, first compound 0.000949 µM) 105%; (second compound 10 µM, first compound 0.003 µM) 103%; (second compound 10 µM, first compound 0.00949 µM) 97.3%; (second compound 10 µM, first compound 0.03 µM) 68%; (second compound 10 µM, first compound 0.0949 µM) 12.1%; (second compound 10 µM, first compound 0.3 µM) 0.73%.
Consider `CCN1CCN(Cc2ccc(Nc3ncc(F)c(-c4cc(F)c5nc(C)n(C(C)C)c5c4)n3)nc2)CC1` + Cc1c(S(C)(=O)=O)c(-c2cc(F)cc(N3CCN(c4ccc(NS(=O)(=O)c5ccc(NC(CCN6CCC(C(=O)OCCCP(=O)(O)O)CC6)CSc6ccccc6)c(S(=O)(=O)C(F)(F)F)c5)cc4)CC3)c2)c(-c2ccc(Cl)cc2)n1C(C)C, for which the IC50 is 648 nM under setting [1]; more than 1000 nM under setting [2]; 306 nM under setting [3]; 258 nM under setting [4]; 308 nM under setting [5]. In addition, the viability, T/C (second compound 0.1 µM, first compound 0.00316 µM) was 97.4%; the viability, T/C (second compound 0.1 µM, first compound 0.01 µM) is 97.9%; the viability, T/C (second compound 0.1 µM, first compound 0.0316 µM) was 84%; the viability, T/C (second compound 0.1 µM, first compound 0.1 µM) was 65.6%; the viability, T/C (second compound 0.1 µM, first compound 0.316 µM) is 47.9%; the viability, T/C (second compound 0.1 µM, first compound 1 µM) was 51.5%. The viability, T/C (second compound 0.316 µM, first compound 0.00316 µM) is 103%; the viability, T/C (second compound 0.316 µM, first compound 0.01 µM) is 95.4%; the viability, T/C (second compound 0.316 µM, first compound 0.0316 µM) is 84.9%; the viability, T/C (second compound 0.316 µM, first compound 0.1 µM) was 64.8%; the viability, T/C (second compound 0.316 µM, first compound 0.316 µM) was 49.7%; the viability, T/C (second compound 0.316 µM, first compound 1 µM) was 53.1%. The viability, T/C is, setting by setting: (second compound 1 µM, first compound 0.00316 µM) 98.1%; (second compound 1 µM, first compound 0.01 µM) 93.2%; (second compound 1 µM, first compound 0.0316 µM) 87.7%; (second compound 1 µM, first compound 0.1 µM) 67.6%; (second compound 1 µM, first compound 0.316 µM) 49.5%; (second compound 1 µM, first compound 1 µM) 42.1%. Moreover, the viability, T/C is, setting by setting: (second compound 3.16 µM, first compound 0.00316 µM) 95.9%; (second compound 3.16 µM, first compound 0.01 µM) 91.9%; (second compound 3.16 µM, first compound 0.0316 µM) 83.8%; (second compound 3.16 µM, first compound 0.1 µM) 63.8%; (second compound 3.16 µM, first compound 0.316 µM) 47.7%; (second compound 3.16 µM, first compound 1 µM) 36.5%. Further, the viability, T/C reads like this: (second compound 10 µM, first compound 0.00316 µM) 104%; (second compound 10 µM, first compound 0.01 µM) 97.7%; (second compound 10 µM, first compound 0.0316 µM) 93.6%; (second compound 10 µM, first compound 0.1 µM) 76.9%; (second compound 10 µM, first compound 0.316 µM) 48.7%; (second compound 10 µM, first compound 1 µM) 32.2%.
